According to patent US20240300958A1, “COMPOUNDS AND THE USES AND PHARMACEUTICAL COMPOSITIONS THEREOF” (BEIJING YOUZHUJU NETWORK TECHNOLOGY CO. LTD., priority 2023, published 2024):
Where two headings read alike, the source gives them in different places.

Tests used:
Experiment in all cases: Kinase inhibition profile (HTRF / ADP Glo kinase assay)
Assay type in all cases: biochemical
[1] = target: AKT1 (Homo sapiens (Human), UniProt P31749)
Protocol: (§1) HTRF kinase assay: 2×ATP and substrate solution as well as 2× kinase and metal solution were prepared with assay buffer. 25 nL of compound was transferred to 384-well assay plate by Echo 655. After centrifugation, 2.5 μL of 2× kinase/metal ion solution was added to the 384-well assay plate followed by incubation at 25° C. for 10 min. 2.5 μL of 2× substrate and ATP solution was added to the wells followed by incubation at 25° C. for 60 min. 2× XL665 and antibody solution was prepared with assay buffer. 5 μL of kinase detection reagent was added to the wells followed by incubation at 25° C. for 60 min. Fluorescence signals at 620 nm (Cryptate) and 665 nm (XL665) were read with a microtiter plate reader. ADP Glo kinase assay: 2×ATP and substrate solution as well as 2× kinase and metal solution were prepared with assay buffer. 20 nL of compound was transferred to 384-well assay plate by Echo 655. 2 μL of 2× kinase/metal ion solution was added followed by incubation at 25° C. for 10 min in the 384-well assay plate. 2 μL of 2× substrate and ATP solution was added to the wells followed by incubation at 25° C. for 60 min. 4 μL of ADP Glo reagent was added to the wells followed by incubation at 25° C. for 40 min. 8 μL of kinase test reagent was added to the wells followed by incubation at 25° C. for 40 min. The luminescence signals were recorded on a microtiter plate reader. Data analysis: the reaction control (0.5% DMSO) reading was set to 0% inhibition, and the background (10 μM positive control) reading was set to 100% inhibition, then the percent inhibition for each test solution was calculated and the results are shown in Table 2 and FIG. 3.

[2] = target: AMPKαl/β1/γ1 (Homo sapiens (Human), UniProt Q13131)
Protocol: as §1

[3] = target: AurB (Homo sapiens (Human), UniProt Q96GD4)
Protocol: as §1

[4] = target: BRAF (Homo sapiens (Human), UniProt P15056)
Protocol: as §1

[5] = target: CDK18/CyclinY (Homo sapiens (Human), UniProt Q07002)
Protocol: as §1

[6] = target: CDK2/CycE1 (Homo sapiens (Human), UniProt P24941)
Protocol: as §1

[7] = target: CHK1 (Homo sapiens (Human), UniProt O14757)
Protocol: as §1

[8] = target: CHK2 (Homo sapiens (Human), UniProt O96017)
Protocol: as §1

[9] = target: CK1α (Homo sapiens (Human), UniProt P48729)
Protocol: as §1

[10] = target: CK2α1/β (Homo sapiens (Human), UniProt P68400)
Protocol: as §1

[11] = target: CLK1 (Homo sapiens (Human), UniProt P49759)
Protocol: as §1

[12] = target: DDR1 (Homo sapiens (Human), UniProt Q08345); details: for inhibition at 1 µM: 1 uM Compound C1, DDR1
Protocol: as §1

[13] = target: DYRK1B (Homo sapiens (Human), UniProt Q9Y463)
Protocol: as §1

[14] = target: JNK2 (Homo sapiens (Human), UniProt P45984)
Protocol: as §1

[15] = target: KDR (Homo sapiens (Human), UniProt P35968)
Protocol: as §1

[16] = target: MAPKAPK2 (Homo sapiens (Human), UniProt P49137)
Protocol: as §1

[17] = target: PAK2 (Homo sapiens (Human), UniProt Q13177)
Protocol: as §1

[18] = target: PIM1 (Homo sapiens (Human), UniProt P11309)
Protocol: as §1

[19] = target: SYK (Homo sapiens (Human), UniProt P43405)
Protocol: as §1

[20] = target: TIE2 (Homo sapiens (Human), UniProt Q02763)
Protocol: as §1

[21] = target: TRKB (Homo sapiens (Human), UniProt Q16620)
Protocol: as §1

[22] = 1 uM Compound C1, read-out: % Inhibition (First measurement)
[23] = 1 uM Compound C1, read-out: % Inhibition (Second measurement)
[24] = 1 uM Compound C1, read-out: Average inhibition (%)

Sequence of TIE2 (Q02763 23-1124, species assumed): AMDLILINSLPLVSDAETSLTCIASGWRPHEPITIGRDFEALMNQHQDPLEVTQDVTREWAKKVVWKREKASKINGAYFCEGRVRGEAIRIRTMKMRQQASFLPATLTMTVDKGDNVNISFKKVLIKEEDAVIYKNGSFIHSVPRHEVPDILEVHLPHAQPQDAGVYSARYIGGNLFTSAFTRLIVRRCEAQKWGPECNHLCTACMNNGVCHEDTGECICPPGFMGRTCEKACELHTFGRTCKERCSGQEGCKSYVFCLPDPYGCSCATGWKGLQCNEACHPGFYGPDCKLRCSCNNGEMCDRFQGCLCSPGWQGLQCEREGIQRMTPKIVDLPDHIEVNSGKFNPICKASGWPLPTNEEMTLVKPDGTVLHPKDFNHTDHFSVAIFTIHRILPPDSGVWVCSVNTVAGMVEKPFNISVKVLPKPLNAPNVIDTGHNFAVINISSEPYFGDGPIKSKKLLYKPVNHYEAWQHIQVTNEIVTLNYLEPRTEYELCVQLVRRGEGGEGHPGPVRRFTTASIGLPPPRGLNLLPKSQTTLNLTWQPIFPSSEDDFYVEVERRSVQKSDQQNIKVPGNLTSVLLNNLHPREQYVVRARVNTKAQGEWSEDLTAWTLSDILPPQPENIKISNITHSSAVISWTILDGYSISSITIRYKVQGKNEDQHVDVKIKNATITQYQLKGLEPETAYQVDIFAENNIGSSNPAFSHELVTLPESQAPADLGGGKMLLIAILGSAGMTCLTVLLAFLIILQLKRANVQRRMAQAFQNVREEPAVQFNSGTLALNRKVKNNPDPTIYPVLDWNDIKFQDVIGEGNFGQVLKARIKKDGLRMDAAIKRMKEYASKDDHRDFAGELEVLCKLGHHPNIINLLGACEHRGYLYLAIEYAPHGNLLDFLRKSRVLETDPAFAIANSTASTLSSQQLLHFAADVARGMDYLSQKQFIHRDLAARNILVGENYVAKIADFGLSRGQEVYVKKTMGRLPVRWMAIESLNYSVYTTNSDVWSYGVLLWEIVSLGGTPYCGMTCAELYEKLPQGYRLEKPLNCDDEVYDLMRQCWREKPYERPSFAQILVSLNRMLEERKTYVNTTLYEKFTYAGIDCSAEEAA
Sequence of PAK2 (Q13177 whole entry, species assumed): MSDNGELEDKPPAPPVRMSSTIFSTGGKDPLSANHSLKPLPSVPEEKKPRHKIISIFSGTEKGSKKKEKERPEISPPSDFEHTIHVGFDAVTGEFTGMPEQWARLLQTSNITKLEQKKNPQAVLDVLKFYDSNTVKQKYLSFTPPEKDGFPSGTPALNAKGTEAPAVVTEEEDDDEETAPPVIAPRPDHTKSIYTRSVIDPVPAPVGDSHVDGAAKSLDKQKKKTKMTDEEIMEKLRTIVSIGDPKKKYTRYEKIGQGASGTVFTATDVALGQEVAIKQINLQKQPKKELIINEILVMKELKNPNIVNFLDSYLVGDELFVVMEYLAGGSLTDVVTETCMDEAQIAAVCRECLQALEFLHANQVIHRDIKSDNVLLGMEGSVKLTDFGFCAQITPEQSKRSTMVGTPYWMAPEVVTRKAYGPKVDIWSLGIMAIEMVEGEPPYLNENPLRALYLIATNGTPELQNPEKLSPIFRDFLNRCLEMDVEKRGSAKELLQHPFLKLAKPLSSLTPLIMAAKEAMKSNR
Sequence of CK2α1/β (P68400 whole entry): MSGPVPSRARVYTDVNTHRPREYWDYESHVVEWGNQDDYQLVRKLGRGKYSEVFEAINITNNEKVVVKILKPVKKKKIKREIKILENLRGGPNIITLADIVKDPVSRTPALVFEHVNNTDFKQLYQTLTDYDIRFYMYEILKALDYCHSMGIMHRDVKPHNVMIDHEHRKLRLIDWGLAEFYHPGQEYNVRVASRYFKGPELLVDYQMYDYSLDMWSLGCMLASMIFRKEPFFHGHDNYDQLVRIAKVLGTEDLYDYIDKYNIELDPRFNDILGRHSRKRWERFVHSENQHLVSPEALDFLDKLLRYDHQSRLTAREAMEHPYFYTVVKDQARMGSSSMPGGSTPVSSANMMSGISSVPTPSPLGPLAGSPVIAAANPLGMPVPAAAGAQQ
Sequence of CK2α1/β (P67870 whole entry partner): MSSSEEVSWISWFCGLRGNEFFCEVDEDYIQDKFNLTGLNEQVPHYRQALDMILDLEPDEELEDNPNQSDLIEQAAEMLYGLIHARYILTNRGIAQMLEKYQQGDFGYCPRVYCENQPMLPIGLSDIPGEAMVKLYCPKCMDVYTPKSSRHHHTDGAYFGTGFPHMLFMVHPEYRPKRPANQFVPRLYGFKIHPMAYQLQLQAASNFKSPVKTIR
Sequence of CHK1 (O14757 whole entry, species assumed): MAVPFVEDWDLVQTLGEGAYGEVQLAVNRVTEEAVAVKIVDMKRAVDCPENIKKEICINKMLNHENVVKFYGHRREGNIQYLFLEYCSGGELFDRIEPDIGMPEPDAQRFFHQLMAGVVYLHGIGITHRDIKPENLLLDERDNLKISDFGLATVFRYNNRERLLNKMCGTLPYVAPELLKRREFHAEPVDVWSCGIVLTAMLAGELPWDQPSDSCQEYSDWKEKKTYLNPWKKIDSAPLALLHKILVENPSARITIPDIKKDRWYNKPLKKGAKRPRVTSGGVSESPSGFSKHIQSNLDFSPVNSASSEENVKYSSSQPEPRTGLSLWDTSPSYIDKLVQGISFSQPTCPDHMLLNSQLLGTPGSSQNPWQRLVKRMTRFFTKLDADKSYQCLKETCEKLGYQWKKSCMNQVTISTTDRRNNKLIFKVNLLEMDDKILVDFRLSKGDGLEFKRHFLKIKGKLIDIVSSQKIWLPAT
Sequence of CLK1 (P49759 whole entry): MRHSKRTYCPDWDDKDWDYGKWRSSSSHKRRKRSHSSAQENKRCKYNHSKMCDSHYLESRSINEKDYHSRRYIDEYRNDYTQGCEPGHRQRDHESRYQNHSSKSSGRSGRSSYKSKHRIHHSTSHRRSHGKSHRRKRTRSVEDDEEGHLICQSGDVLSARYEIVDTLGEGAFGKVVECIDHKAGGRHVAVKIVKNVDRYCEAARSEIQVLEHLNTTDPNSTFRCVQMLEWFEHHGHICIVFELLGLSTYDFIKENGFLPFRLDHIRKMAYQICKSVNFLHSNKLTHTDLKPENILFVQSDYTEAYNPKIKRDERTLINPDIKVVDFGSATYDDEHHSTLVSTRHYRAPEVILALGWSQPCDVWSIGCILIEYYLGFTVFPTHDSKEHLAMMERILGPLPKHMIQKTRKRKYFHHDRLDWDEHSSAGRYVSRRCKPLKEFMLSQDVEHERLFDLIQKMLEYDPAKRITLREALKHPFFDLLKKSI
Sequence of DYRK1B (Q9Y463 whole entry, species assumed): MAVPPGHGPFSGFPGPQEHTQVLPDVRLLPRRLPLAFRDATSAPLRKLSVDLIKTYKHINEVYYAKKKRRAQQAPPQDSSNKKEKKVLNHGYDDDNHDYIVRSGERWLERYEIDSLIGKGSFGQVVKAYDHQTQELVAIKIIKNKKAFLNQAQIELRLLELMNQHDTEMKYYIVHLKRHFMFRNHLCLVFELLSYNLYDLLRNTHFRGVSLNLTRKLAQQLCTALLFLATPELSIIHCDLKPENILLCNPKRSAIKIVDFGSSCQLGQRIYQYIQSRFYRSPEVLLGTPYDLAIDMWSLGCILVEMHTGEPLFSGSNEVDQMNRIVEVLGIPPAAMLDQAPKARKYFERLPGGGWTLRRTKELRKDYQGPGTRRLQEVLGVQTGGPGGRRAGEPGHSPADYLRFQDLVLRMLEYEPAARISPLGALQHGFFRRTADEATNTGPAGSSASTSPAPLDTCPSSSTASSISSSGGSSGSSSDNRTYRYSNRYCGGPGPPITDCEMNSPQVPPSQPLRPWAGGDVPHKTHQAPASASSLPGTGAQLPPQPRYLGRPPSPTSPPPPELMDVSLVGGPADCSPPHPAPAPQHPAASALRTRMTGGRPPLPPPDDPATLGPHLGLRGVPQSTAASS
Sequence of DDR1 (Q08345 19-913): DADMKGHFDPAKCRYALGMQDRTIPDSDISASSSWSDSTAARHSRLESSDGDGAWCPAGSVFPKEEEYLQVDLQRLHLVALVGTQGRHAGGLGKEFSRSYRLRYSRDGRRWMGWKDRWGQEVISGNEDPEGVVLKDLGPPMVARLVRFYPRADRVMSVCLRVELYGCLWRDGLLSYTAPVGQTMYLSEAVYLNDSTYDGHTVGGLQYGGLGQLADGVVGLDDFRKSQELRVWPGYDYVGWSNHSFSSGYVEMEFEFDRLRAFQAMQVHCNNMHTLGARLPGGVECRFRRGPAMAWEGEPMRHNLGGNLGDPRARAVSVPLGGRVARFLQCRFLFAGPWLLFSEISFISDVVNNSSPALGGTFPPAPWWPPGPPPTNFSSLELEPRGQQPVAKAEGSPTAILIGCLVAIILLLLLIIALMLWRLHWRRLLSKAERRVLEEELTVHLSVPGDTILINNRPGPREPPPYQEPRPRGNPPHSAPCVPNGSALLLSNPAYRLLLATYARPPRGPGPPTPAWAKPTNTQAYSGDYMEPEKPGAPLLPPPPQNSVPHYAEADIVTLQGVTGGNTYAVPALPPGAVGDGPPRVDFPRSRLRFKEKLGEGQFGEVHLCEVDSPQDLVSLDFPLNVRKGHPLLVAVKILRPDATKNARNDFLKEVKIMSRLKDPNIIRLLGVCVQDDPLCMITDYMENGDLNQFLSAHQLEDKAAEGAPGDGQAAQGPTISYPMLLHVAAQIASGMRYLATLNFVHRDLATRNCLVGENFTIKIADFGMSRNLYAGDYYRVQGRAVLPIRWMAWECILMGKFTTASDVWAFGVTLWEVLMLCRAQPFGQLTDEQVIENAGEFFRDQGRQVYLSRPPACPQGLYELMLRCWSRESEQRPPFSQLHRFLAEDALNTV

- inhibition at 1 µM [1, 22]: 7.17%
- inhibition at 1 µM [1, 23]: 4.56%
- inhibition at 1 µM [1, 24]: 5.87%
- inhibition at 1 µM [2, 22]: 2.13%
- inhibition at 1 µM [2, 23]: -1.96%
- inhibition at 1 µM [2, 24]: 0.09%
- inhibition at 1 µM [3, 22]: 19.7%
- inhibition at 1 µM [3, 23]: 13.3%
- inhibition at 1 µM [3, 24]: 16.5%
- inhibition at 1 µM [4, 22]: -6.73%
- inhibition at 1 µM [4, 23]: -23.9%
- inhibition at 1 µM [4, 24]: -15.3%
- inhibition at 1 µM [5, 22]: 18%
- inhibition at 1 µM [5, 23]: 2.55%
- inhibition at 1 µM [5, 24]: 10.3%
- inhibition at 1 µM [6, 22]: 0.53%
- inhibition at 1 µM [6, 23]: 12.6%
- inhibition at 1 µM [6, 24]: 6.56%
- inhibition at 1 µM [7, 22]: -10.6%
- inhibition at 1 µM [7, 23]: -13.6%
- inhibition at 1 µM [7, 24]: -12.1%
- inhibition at 1 µM [8, 22]: 0.35%
- inhibition at 1 µM [8, 23]: 7.34%
- inhibition at 1 µM [8, 24]: 3.85%
- inhibition at 1 µM [9, 22]: 5.8%
- inhibition at 1 µM [9, 23]: -5.89%
- inhibition at 1 µM [9, 24]: -0.04%
- inhibition at 1 µM [10, 22]: -5.19%
- inhibition at 1 µM [10, 23]: 5.01%
- inhibition at 1 µM [10, 24]: -0.09%
- inhibition at 1 µM [11, 22]: 2.98%
- inhibition at 1 µM [11, 23]: 12.3%
- inhibition at 1 µM [11, 24]: 7.67%
- inhibition at 1 µM ([12]; read-out: % Inhibition (First measurement)): 99.4%
- inhibition at 1 µM ([12]; read-out: % Inhibition (Second measurement)): 99.1%
- inhibition at 1 µM ([12]; read-out: Average inhibition (%)): 99.3%
- Selectivity of DDR1 inhibition in the kinase inhibition profile (in words) ([12]; kinase panel): can inhibit DDR1 with higher selectivity
- inhibition at 1 µM [13, 22]: 4.14%
- inhibition at 1 µM [13, 23]: 9.03%
- inhibition at 1 µM [13, 24]: 6.58%
- inhibition at 1 µM [14, 22]: 9.39%
- inhibition at 1 µM [14, 23]: 9.07%
- inhibition at 1 µM [14, 24]: 9.23%
- inhibition at 1 µM [15, 22]: 2.42%
- inhibition at 1 µM [15, 23]: 1.61%
- inhibition at 1 µM [15, 24]: 2.01%
- inhibition at 1 µM [16, 22]: 15.3%
- inhibition at 1 µM [16, 23]: -3.28%
- inhibition at 1 µM [16, 24]: 6.02%
- inhibition at 1 µM [17, 22]: 2.23%
- inhibition at 1 µM [17, 23]: 12.1%
- inhibition at 1 µM [17, 24]: 7.17%
- inhibition at 1 µM [18, 22]: -3.17%
- inhibition at 1 µM [18, 23]: -4.27%
- inhibition at 1 µM [18, 24]: -3.72%
- inhibition at 1 µM [19, 22]: 5.21%
- inhibition at 1 µM [19, 23]: -2.04%
- inhibition at 1 µM [19, 24]: 1.59%
- inhibition at 1 µM [20, 22]: -5.65%
- inhibition at 1 µM [20, 23]: 6.2%
- inhibition at 1 µM [20, 24]: 0.28%
- inhibition at 1 µM [21, 22]: 20.8%
- inhibition at 1 µM [21, 23]: 40.4%
- inhibition at 1 µM [21, 24]: 30.6%
SMILES: Cc1ccc(C(=O)Nc2ccccn2)cc1C#Cc1cnc2cc(C3=CCCCC3)cnn12 [Compound C1, 3-{2-[7-(cyclohex-1-en-1-yl)imidazo[1,2-b]pyridazin-3-yl]ethynyl}-4-methyl-N-(pyridin-2-yl)benzamide]
